According to patent US20240024273A1, “TOPICAL ADMINISTRATION OF 2-(DIETHYLAMINO)ETHYL 2-(4-ISOBUTYLPHENYL)PROPRIONATE FOR TREATMENT OF DISEASES” (TECHFIELDS PHARMA CO., LTD., priority 2020, published 2024):

Assays:
[1] = tested on: osteoarthritis of the knee; test: Second Phase 2 study: Investigator's global assessment of disease status (IGADS); assay type: in vivo, human; details: all subjects, Week 12
[2] = tested on: osteoarthritis of the knee; test: Second Phase 2 study: WOMAC difficulty performing daily activities (functional ability) subscale score; assay type: in vivo, human
From the text: This is a Phase 2, multicenter, randomized, double blind (within dose), Ibuprofen-placebo controlled, parallel group, dose range finding study to evaluate the efficacy, safety, and PK of 2-(diethylamino)ethyl 2-(4-isobutylphenyl)propionate spray in adult subjects with clinically symptomatic OA of the knee. For subjects with bilateral knee pain, both knees will be treated, but the most symptomatic knee (ie, the most painful knee as measured by the Western Ontario and McMaster University Osteoarthritis Index [WOMAC® 3.1] pain subscale score at Screening) will be designated as the target knee for efficacy analyses. For subjects with unilateral knee pain, only the symptomatic (target) knee will be treated.
The VAS version of the WOMAC will be used for the Primary and Secondary Efficacy Endpoints. Efficacy endpoints will be assessed at Screening and Baseline (Day 1) and at the Week 2, Week 4, Week 8, and Week 12/EOS visits.
4.9.2. Secondary Efficacy Endpoints: • 1. Change from Baseline in the WOMAC (VAS) pain subscale score for the target knee at 2, 8, and 12 weeks of treatment; • 2. Change from Baseline in the WOMAC (VAS) stiffness subscale scores for the target knee and WOMAC (VAS) functional ability subscale scores at 2, 4, 8, and 12 weeks of treatment; • 3. Change from Baseline in the overall WOMAC (VAS) score at 2, 4, 8, and 12 weeks of treatment; • 4. Subject's global assessment of disease status of the target knee at 2, 4, 8, and 12 weeks of treatment; • 5. Subject's global assessment of response to therapy of the target knee at 2, 4, 8, and 12 weeks of treatment; • 6. Amount of rescue medication (acetaminophen) consumed per day for target knee pain.
The Secondary Efficacy Endpoints, change from Baseline in the WOMAC subscale scores for pain, stiffness, and functional ability, and overall WOMAC score at 2, 4, 8, and 12 weeks of treatment, will be analyzed using the same methods as for the Primary Efficacy Endpoint.

[3] = 17.5 mg/knee BID, Week 12, first 130 subjects
[4] = Week 12, 4.375 mg/knee BID (n = 23), first 130 subjects
[5] = Week 12, 8.75 mg/knee BID (n = 24), first 130 subjects
[6] = Week 12, 17.5 mg/knee BID (n = 19), first 130 subjects
[7] = all subjects, 4.375 mg/knee BID, n = 49, Week 12
[8] = all subjects, 8.75 mg/knee BID, n = 54, Week 12
[9] = all subjects, 17.5 mg/knee BID, n = 52, Week 12

SMILES: CCN(CC)CCOC(=O)C(C)c1ccc(CC(C)C)cc1 (stereo not shown) [2-(diethylamino)ethyl 2-(4-isobutylphenyl)propionate]
- IGADS, Poor and Very Poor ([1]; 4.375 mg/knee BID, n = 49): 8.2%
- IGADS, fair ([1]; 4.375 mg/knee BID, n = 49): 51.0%
- IGADS, Good and Very good ([1]; 8.75 mg/knee BID, n = 54): 48.1%
- IGADS, Poor and Very Poor ([1]; 8.75 mg/knee BID, n = 54): 7.4%
- IGADS, fair ([1]; 8.75 mg/knee BID, n = 54): 44.4%
- IGADS, Good and Very good ([1]; 17.5 mg/knee BID, n = 52): 63.5%
- IGADS, Poor and Very Poor ([1]; 17.5 mg/knee BID, n = 52): 1.9%
- IGADS, fair ([1]; 17.5 mg/knee BID, n = 52): 34.6%
- WOMAC functional ability, difference from oral ibuprofen [2, 3]: −15.6
- WOMAC functional ability, difference from placebo [2, 3]: −19.1
- WOMAC Difficulty Performing Daily Activities Subscale Score, Day 1, Avg. ([2]; Avg. of all patients (blinded), Low Dose (2 spray/knee, 8.75 mg/knee) Cohort, Day 1): 60.4
- WOMAC Difficulty Performing Daily Activities Subscale Score, Follow-up, Avg. ([2]; Avg. of all patients (blinded), Low Dose (2 spray/knee, 8.75 mg/knee) Cohort, Follow-up): 40.1
- WOMAC Difficulty Performing Daily Activities Subscale Score, Week 2, Avg. ([2]; Avg. of all patients (blinded), Low Dose (2 spray/knee, 8.75 mg/knee) Cohort, Week 2): 49.8
- WOMAC Difficulty Performing Daily Activities Subscale Score, Week 4, Avg. ([2]; Avg. of all patients (blinded), Low Dose (2 spray/knee, 8.75 mg/knee) Cohort, Week 4): 44.0
- WOMAC Difficulty Performing Daily Activities Subscale Score, Week 8, Avg. ([2]; Avg. of all patients (blinded), Low Dose (2 spray/knee, 8.75 mg/knee) Cohort, Week 8): 41.1
- WOMAC Difficulty Performing Daily Activities Subscale Score, Week 12, Avg. ([2]; Avg. of all patients (blinded), Low Dose (2 spray/knee, 8.75 mg/knee) Cohort, Week 12): 39.8
- WOMAC Difficulty Performing Daily Activities Subscale Scores, Baseline (LS Mean) ([2]; 4.375 mg/knee BID (n = 23), first 130 subjects): 60.2 mm
- WOMAC Difficulty Performing Daily Activities Subscale Scores, Baseline (LS Mean) ([2]; 8.75 mg/knee BID (n = 24), first 130 subjects): 61.6 mm
- WOMAC Difficulty Performing Daily Activities Subscale Scores, Baseline (LS Mean) ([2]; 17.5 mg/knee BID (n = 19), first 130 subjects): 63.9 mm
- WOMAC Difficulty Performing Daily Activities Subscale Scores, % of improvement from Oral Ibuprofen [2, 4]: −10.9%
- WOMAC Difficulty Performing Daily Activities Subscale Scores, % of improvement from Placebo [2, 4]: −14.2%
- WOMAC Difficulty Performing Daily Activities Subscale Scores, % of improvement from baseline [2, 4]: −43.9%
- WOMAC Difficulty Performing Daily Activities Subscale Scores, Changes from Baseline (LS Mean) [2, 4]: −26.4 mm
- WOMAC Difficulty Performing Daily Activities Subscale Scores, Different from oral ibuprofen (LS Mean) [2, 4]: −4.8 mm
- WOMAC Difficulty Performing Daily Activities Subscale Scores, Different from placebo (LS Mean) [2, 4]: −8.3 mm
- WOMAC Difficulty Performing Daily Activities Subscale Scores, Week 12 (LS Mean) [2, 4]: 33.8 mm
- WOMAC Difficulty Performing Daily Activities Subscale Scores, % of improvement from Oral Ibuprofen [2, 5]: −12.5%
- WOMAC Difficulty Performing Daily Activities Subscale Scores, % of improvement from Placebo [2, 5]: −15.9%
- WOMAC Difficulty Performing Daily Activities Subscale Scores, % of improvement from baseline [2, 5]: −45.6%
- WOMAC Difficulty Performing Daily Activities Subscale Scores, Changes from Baseline (LS Mean) [2, 5]: −28.1 mm
- WOMAC Difficulty Performing Daily Activities Subscale Scores, Different from oral ibuprofen (LS Mean) [2, 5]: −6.6 mm
- WOMAC Difficulty Performing Daily Activities Subscale Scores, Different from placebo (LS Mean) [2, 5]: −10.0 mm
- WOMAC Difficulty Performing Daily Activities Subscale Scores, Week 12 (LS Mean) [2, 5]: 33.4 mm
- WOMAC Difficulty Performing Daily Activities Subscale Scores, % of improvement from Oral Ibuprofen [2, 6]: −25.2%
- WOMAC Difficulty Performing Daily Activities Subscale Scores, % of improvement from Placebo [2, 6]: −28.5%
- WOMAC Difficulty Performing Daily Activities Subscale Scores, % of improvement from baseline [2, 6]: −58.2%
- WOMAC Difficulty Performing Daily Activities Subscale Scores, Changes from Baseline (LS Mean) [2, 6]: −37.2 mm
- WOMAC Difficulty Performing Daily Activities Subscale Scores, Different from oral ibuprofen (LS Mean) [2, 6]: −15.6 mm
- WOMAC Difficulty Performing Daily Activities Subscale Scores, Different from placebo (LS Mean) [2, 6]: −19.1 mm
- WOMAC Difficulty Performing Daily Activities Subscale Scores, Week 12 (LS Mean) [2, 6]: 26.7 mm
- WOMAC Difficulty Performing Daily Activities Subscale Scores, % of improvement from Oral Ibuprofen [2, 7]: −1.3%
- WOMAC Difficulty Performing Daily Activities Subscale Scores, % of improvement from Placebo [2, 7]: −5.6%
- WOMAC Difficulty Performing Daily Activities Subscale Scores, % of improvement from baseline [2, 7]: −42.8%
- WOMAC Difficulty Performing Daily Activities Subscale Scores, Changes from Baseline (LS Mean) [2, 7]: −25.4 mm
- WOMAC Difficulty Performing Daily Activities Subscale Scores, Week 12 (LS Mean) [2, 7]: 33.9 mm
- WOMAC Difficulty Performing Daily Activities Subscale Scores, % of improvement from Oral Ibuprofen [2, 8]: −4.6%
- WOMAC Difficulty Performing Daily Activities Subscale Scores, % of improvement from Placebo [2, 8]: −8.9%
- WOMAC Difficulty Performing Daily Activities Subscale Scores, % of improvement from baseline [2, 8]: −46.1%
- WOMAC Difficulty Performing Daily Activities Subscale Scores, Changes from Baseline (LS Mean) [2, 8]: −27.9 mm
- WOMAC Difficulty Performing Daily Activities Subscale Scores, Different from oral ibuprofen (LS Mean) [2, 8]: −2.7 mm
- WOMAC Difficulty Performing Daily Activities Subscale Scores, Different from placebo (LS Mean) [2, 8]: −6.0 mm
- WOMAC Difficulty Performing Daily Activities Subscale Scores, Week 12 (LS Mean) [2, 8]: 32.6 mm
- WOMAC Difficulty Performing Daily Activities Subscale Scores, % of improvement from Oral Ibuprofen [2, 9]: −11.0%
- WOMAC Difficulty Performing Daily Activities Subscale Scores, % of improvement from Placebo [2, 9]: −15.3%
- WOMAC Difficulty Performing Daily Activities Subscale Scores, % of improvement from baseline [2, 9]: −52.5%
- WOMAC Difficulty Performing Daily Activities Subscale Scores, Changes from Baseline (LS Mean) [2, 9]: −31.4 mm
- WOMAC Difficulty Performing Daily Activities Subscale Scores, Different from placebo (LS Mean) [2, 9]: −9.5 mm
- WOMAC Difficulty Performing Daily Activities Subscale Scores, Week 12 (LS Mean) [2, 9]: 28.3 mm
